In the CheMixHub viscosity set:

Assay: xn = mol fraction of the nth substance listed

CC(C)CC(C)(C)C + C1CCCCC1
viscosity [mPa·s]
Settings | 298.15 K | 303.15 K | 308.15 K | 313.15 K | 318.15 K | 323.15 K
101 kPa, x2 = 0.1052 | – | 0.4666 | – | – | – | –
101 kPa, x2 = 0.1988 | – | 0.4842 | – | – | – | –
101 kPa, x2 = 0.3026 | – | 0.505 | – | – | – | –
101 kPa, x2 = 0.4095 | – | 0.5328 | – | – | – | –
101 kPa, x2 = 0.5008 | – | 0.5579 | – | – | – | –
101 kPa, x2 = 0.6005 | – | 0.5947 | – | – | – | –
101 kPa, x2 = 0.7002 | – | 0.6379 | – | – | – | –
101 kPa, x2 = 0.8014 | – | 0.6902 | – | – | – | –
101.33 kPa, x1 = 0.035 | 0.8617 | 0.7932 | 0.7312 | 0.6779 | 0.6323 | 0.5887
101.33 kPa, x1 = 0.0662 | 0.8283 | 0.7645 | 0.7054 | 0.6567 | 0.6115 | 0.5733
101.33 kPa, x1 = 0.1012 | 0.8041 | 0.741 | 0.6844 | 0.6377 | 0.5952 | 0.5565
101.33 kPa, x1 = 0.1376 | 0.7806 | 0.718 | 0.6639 | 0.6192 | 0.5793 | 0.5402
101.33 kPa, x1 = 0.1754 | 0.7572 | 0.6953 | 0.6438 | 0.6 | 0.5628 | 0.5235
101.33 kPa, x1 = 0.2147 | 0.7344 | 0.6732 | 0.6242 | 0.5813 | 0.5467 | –
101.33 kPa, x1 = 0.2557 | 0.7147 | 0.6528 | 0.6066 | 0.5646 | 0.5318 | –
101.33 kPa, x1 = 0.2984 | 0.6954 | 0.633 | 0.5895 | 0.5483 | 0.5172 | –
101.33 kPa, x1 = 0.343 | 0.6717 | 0.6129 | 0.5717 | 0.5322 | 0.5024 | –
101.33 kPa, x1 = 0.3895 | 0.6484 | 0.5933 | 0.5545 | 0.5166 | 0.488 | –
101.33 kPa, x1 = 0.4382 | 0.6219 | 0.5768 | 0.539 | 0.5029 | 0.4762 | –
101.33 kPa, x1 = 0.4891 | 0.5959 | 0.5607 | 0.524 | 0.4895 | 0.4647 | –
101.33 kPa, x1 = 0.5423 | 0.5752 | 0.5454 | 0.5098 | 0.4781 | 0.4527 | –
101.33 kPa, x1 = 0.5982 | 0.5549 | 0.5306 | 0.496 | 0.4671 | 0.4411 | –
101.33 kPa, x1 = 0.6569 | 0.5406 | 0.5132 | 0.4812 | 0.4546 | 0.4305 | –
101.33 kPa, x1 = 0.7185 | 0.5267 | 0.4963 | 0.4668 | 0.4424 | 0.4203 | –
101.33 kPa, x1 = 0.7834 | 0.5135 | 0.4848 | 0.457 | 0.4315 | 0.4106 | –
101.33 kPa, x1 = 0.8517 | 0.5006 | 0.4737 | 0.4475 | 0.421 | 0.4013 | –
101.33 kPa, x1 = 0.9238 | 0.4888 | 0.4625 | 0.4368 | 0.4131 | 0.3929 | –
